Tests used:
Assay in all cases: Kinase inhibitor library screening, PrestoBlue cell viability, 1 or 10 μM, 72 h
501Mel cells (parental) = conditions: 72 h
Description: (§1) After 72 h of treatment, cell viability was assessed using the PrestoBlue Cell Viability Reagent (ThermoFisher Scientific). Measurements were performed with the CLARIOstar Monochromator microplate reader (BMG Labtech).
(§2) Kinase inhibitor library screening. […] Each cell line was treated in its sensitive form (parental), and also as 2 resistant derivatives, which were made resistant to either Vemurafenib (XP) or Dabrafenib (GP). Drugs were added at 2 different concentrations, 1 and 10 μM, for 72 h and cell viability was assessed using the PrestoBlue Cell Viability assay. Results are depicted as % viability compared to untreated cells. Each cell line was analyzed at least in duplicate. […] (XLSX 95 kb)

[1] = system: IGR37-XP cells (Vemurafenib-resistant)
Description: as §1, §2

[2] = system: IGR37-GP cells (Dabrafenib-resistant)
Description: as §1, §2

[3] = system: A375-XP cells (Vemurafenib-resistant); conditions: for cell viability, A375 XP, 1μΜ / cell viability, A375 XP, 10μΜ: in %
Description: as §1, §2

A375 cells (parental) = system: A375 cells (parental)
Description: as §1, §2

[4] = system: 501Mel-XP cells (Vemurafenib-resistant); conditions: 72 h
Description: as §1, §2

[5] = system: A375-GP cells (Dabrafenib-resistant); conditions: for cell viability, A375 GP, 1μΜ / cell viability, A375 GP, 10μΜ: in %
Description: as §1, §2

[6] = system: 501Mel-GP cells (Dabrafenib-resistant); conditions: 72 h
Description: as §1, §2

IGR37 cells (parental) = system: IGR37 cells (parental)
Description: as §1, §2

[7] = A375 Parental, 10μΜ, 72 h, in %
[8] = IGR37 Parental, 1μΜ, 72 h, in %
[9] = IGR37 Parental, 10μΜ, 72 h, in %

## COc1cc2ncnc(Nc3ccc(O)c(Br)c3)c2cc1OC [WHI-P154]
501Mel cells (parental); 501Mel Parental, 1μΜ, in %
  cell viability, 501Mel Parental, 1μΜ: 97.4
501Mel cells (parental); 501Mel Parental, 10μΜ, in %
  cell viability, 501Mel Parental, 10μΜ: 93.8
[1]; IGR37 XP, 10μΜ, 72 h
  cell viability, IGR37 XP, 10μΜ: 36.2%
[1]; IGR37 XP, 1μΜ, 72 h, in %
  cell viability, IGR37 XP, 1μΜ: 91.6
[2]; IGR37 GP, 10μΜ, 72 h
  cell viability, IGR37 GP, 10μΜ: 72.3%
[2]; IGR37 GP, 1μΜ, 72 h, in %
  cell viability, IGR37 GP, 1μΜ: 94.4
[3]; A375 XP, 1μΜ, 72 h
  cell viability, A375 XP, 1μΜ: 105.6
[3]; A375 XP, 10μΜ, 72 h
  cell viability, A375 XP, 10μΜ: 90.7
A375 cells (parental); A375 Parental, 1μΜ, 72 h, in %
  cell viability, A375 Parental, 1μΜ: 98.9
A375 cells (parental); [7]
  cell viability, A375 Parental, 10μΜ: 86.7
[4]; 501Mel XP, 1μΜ, in %
  cell viability, 501Mel XP, 1μΜ: 89.8
[4]; 501Mel XP, 10μΜ, in %
  cell viability, 501Mel XP, 10μΜ: 63.6
[5]; A375 GP, 1μΜ, 72 h
  cell viability, A375 GP, 1μΜ: 96.6
[5]; A375 GP, 10μΜ, 72 h
  cell viability, A375 GP, 10μΜ: 85.7
[6]; 501Mel GP, 1μΜ, in %
  cell viability, 501Mel GP, 1μΜ: 99.5
[6]; 501Mel GP, 10μΜ, in %
  cell viability, 501Mel GP, 10μΜ: 77.2
IGR37 cells (parental); [8]
  cell viability, IGR37 Parental, 1μΜ: 97.1
IGR37 cells (parental); [9]
  cell viability, IGR37 Parental, 10μΜ: 93.0

## OCCn1cc(-c2ccc3c(c2)CC/C3=N\O)c(-c2ccncc2)n1 [GDC-0879]
501Mel cells (parental); 501Mel Parental, 1μΜ, in %
  Cell viability in kinase inhibitor library screening, 501Mel Parental, 1μΜ: 79.0
501Mel cells (parental); 501Mel Parental, 10μΜ, in %
  Cell viability in kinase inhibitor library screening, 501Mel Parental, 10μΜ: 63.5
[1]; IGR37 XP, 10μΜ, 72 h
  Cell viability in kinase inhibitor library screening, IGR37 XP, 10μΜ: 60.4%
[1]; IGR37 XP, 1μΜ, 72 h, in %
  Cell viability in kinase inhibitor library screening, IGR37 XP, 1μΜ: 110.2
[2]; IGR37 GP, 10μΜ, 72 h
  Cell viability in kinase inhibitor library screening, IGR37 GP, 10μΜ: 88.9%
[2]; IGR37 GP, 1μΜ, 72 h, in %
  Cell viability in kinase inhibitor library screening, IGR37 GP, 1μΜ: 99.1
[3]; A375 XP, 1μΜ, 72 h
  Cell viability in kinase inhibitor library screening, A375 XP, 1μΜ: 91.2
[3]; A375 XP, 10μΜ, 72 h
  Cell viability in kinase inhibitor library screening, A375 XP, 10μΜ: 47.1
A375 cells (parental); A375 Parental, 10μΜ, 72 h
  Cell viability in kinase inhibitor library screening, A375 Parental, 10μΜ: 28.9
A375 cells (parental); A375 Parental, 1μΜ, 72 h
  Cell viability in kinase inhibitor library screening, A375 Parental, 1μΜ: 49.6
[4]; 501Mel XP, 1μΜ, in %
  Cell viability in kinase inhibitor library screening, 501Mel XP, 1μΜ: 97.9
[4]; 501Mel XP, 10μΜ, in %
  Cell viability in kinase inhibitor library screening, 501Mel XP, 10μΜ: 89.8
[5]; A375 GP, 1μΜ, 72 h
  Cell viability in kinase inhibitor library screening, A375 GP, 1μΜ: 85.8
[5]; A375 GP, 10μΜ, 72 h
  Cell viability in kinase inhibitor library screening, A375 GP, 10μΜ: 44.0
[6]; 501Mel GP, 1μΜ, in %
  Cell viability in kinase inhibitor library screening, 501Mel GP, 1μΜ: 108.3
[6]; 501Mel GP, 10μΜ, in %
  Cell viability in kinase inhibitor library screening, 501Mel GP, 10μΜ: 94.0
IGR37 cells (parental); [8]
  Cell viability in kinase inhibitor library screening, IGR37 Parental, 1μΜ: 66.4
IGR37 cells (parental); [9]
  Cell viability in kinase inhibitor library screening, IGR37 Parental, 10μΜ: 27.4

## O=C(NOC[C@H](O)CO)c1ccc(F)c(F)c1Nc1ccc(I)cc1F [PD0325901]
501Mel cells (parental); Homo sapiens, read-out: cell viability, 501Mel Parental, 1μΜ
  viability at 1 µM: 56.4%
501Mel cells (parental); Homo sapiens, read-out: cell viability, 501Mel Parental, 10μΜ
  viability at 10 µM: 64.3%
[1]; Homo sapiens, IGR-37, 72 h, read-out: cell viability, IGR37 XP, 1μΜ
  viability at 1 µM: 58.6%
[1]; Homo sapiens, IGR-37, 72 h, read-out: cell viability, IGR37 XP, 10μΜ
  viability at 10 µM: 15.7%
[2]; Homo sapiens, IGR-37, 72 h, read-out: cell viability, IGR37 GP, 1μΜ
  viability at 1 µM: 76.5%
[2]; Homo sapiens, IGR-37, 72 h, read-out: cell viability, IGR37 GP, 10μΜ
  viability at 10 µM: 46.2%
[3]; Homo sapiens, A-375, 72 h, read-out: cell viability, A375 XP, 1μΜ
  viability at 1 µM: 11.5%
[3]; Homo sapiens, A-375, 72 h, read-out: cell viability, A375 XP, 10μΜ
  viability at 10 µM: 11.4%
A375 cells (parental); Homo sapiens, A-375, 72 h, read-out: cell viability, A375 Parental, 1μΜ
  viability at 1 µM: 17.6%
A375 cells (parental); Homo sapiens, A-375, 72 h, read-out: cell viability, A375 Parental, 10μΜ
  viability at 10 µM: 17.5%
[4]; Homo sapiens, read-out: cell viability, 501Mel XP, 1μΜ
  viability at 1 µM: 72%
[4]; Homo sapiens, read-out: cell viability, 501Mel XP, 10μΜ
  viability at 10 µM: 54.1%
[5]; Homo sapiens, A-375, 72 h, read-out: cell viability, A375 GP, 1μΜ
  viability at 1 µM: 12.6%
[5]; Homo sapiens, A-375, 72 h, read-out: cell viability, A375 GP, 10μΜ
  viability at 10 µM: 13.1%
[6]; Homo sapiens, read-out: cell viability, 501Mel GP, 1μΜ
  viability at 1 µM: 87.8%
[6]; Homo sapiens, read-out: cell viability, 501Mel GP, 10μΜ
  viability at 10 µM: 66.1%
IGR37 cells (parental); Homo sapiens, IGR-37, 72 h, read-out: cell viability, IGR37 Parental, 1μΜ
  viability at 1 µM: 34.5%
IGR37 cells (parental); Homo sapiens, IGR-37, 72 h, read-out: cell viability, IGR37 Parental, 10μΜ
  viability at 10 µM: 35.2%

## CCc1cc(Nc2nccc(-c3c(-c4ccc(OC)c(C(=O)Nc5c(F)cccc5F)c4)nc4ccccn34)n2)c(OC)cc1N1CCC(N2CCN(S(C)(=O)=O)CC2)CC1 [GSK1904529A]
501Mel cells (parental); 501Mel Parental, 1μΜ, in %
  cell viability, 501Mel Parental, 1μΜ: 99.4
501Mel cells (parental); 501Mel Parental, 10μΜ, in %
  cell viability, 501Mel Parental, 10μΜ: 98.3
[1]; IGR37 XP, 10μΜ, 72 h
  cell viability, IGR37 XP, 10μΜ: 20.4%
[1]; IGR37 XP, 1μΜ, 72 h, in %
  cell viability, IGR37 XP, 1μΜ: 98.9
[2]; IGR37 GP, 10μΜ, 72 h
  cell viability, IGR37 GP, 10μΜ: 62.6%
[2]; IGR37 GP, 1μΜ, 72 h, in %
  cell viability, IGR37 GP, 1μΜ: 98.3
[3]; A375 XP, 1μΜ, 72 h
  cell viability, A375 XP, 1μΜ: 104.6
[3]; A375 XP, 10μΜ, 72 h
  cell viability, A375 XP, 10μΜ: 97.7
A375 cells (parental); [7]
  cell viability, A375 Parental, 10μΜ: 94.0
[4]; 501Mel XP, 1μΜ, in %
  cell viability, 501Mel XP, 1μΜ: 93.0
[4]; 501Mel XP, 10μΜ, in %
  cell viability, 501Mel XP, 10μΜ: 82.3
[5]; A375 GP, 1μΜ, 72 h
  cell viability, A375 GP, 1μΜ: 98.4
[5]; A375 GP, 10μΜ, 72 h
  cell viability, A375 GP, 10μΜ: 92.6
[6]; 501Mel GP, 1μΜ, in %
  cell viability, 501Mel GP, 1μΜ: 109.2
[6]; 501Mel GP, 10μΜ, in %
  cell viability, 501Mel GP, 10μΜ: 89.5
IGR37 cells (parental); [8]
  cell viability, IGR37 Parental, 1μΜ: 114.5
IGR37 cells (parental); [9]
  cell viability, IGR37 Parental, 10μΜ: 96.7

From PMC6364417, “Kinase inhibitor library screening identifies synergistic drug combinations effective in sensitive and resistant melanoma cells” (Journal of Experimental & Clinical Cancer Research : CR, 2019)
